Data from US20260344673A1, “A SOLID FORM FOR PREPARATION OF AN AQUEOUS DISPERSION, AQUEOUS DISPERSION, STABLE CONCENTRATE, COMBINED AQUEOUS DISPERSION, AND USES THEREOF” (priority 2022, published 2026).

Experiments:
spring barley [1] = settings: compared with uninoculated plots; Montana 1981 and 1982; cited from earlier work
soya = test: Field trial soya, plant biomass and yield parameters; assay type: in vivo; settings: field conditions
Protocol: (§1) Field trials were conducted in Poland according to approved EPPO guidelines: PP 1/135(4), PP 1/152(4), PP 1/181(4) (general), PP 1/1(4) (sugar beet), PP 1/28 (3), PP 1/26(4) (winter wheat), PP 1/78(4) (oilseed), PP1/263 (1), PP1/16 (3) (strawberry), PP 1/2 (5), PP 1/263 (1) (potato). The spray volumes were in line with farmers' practice, varying between 200-300 l/ha. The applications were processed as per the EPPO guideline specific for each crop.

Sclerotinia sclerotiorum [2] = test: Kirby-Bauer disk diffusion test, Sclerotinia sclerotiorum
Protocol: (§2) The performance of the embodiments of the present inventions and their mixtures enriched with millbase (MFA) was analysed against the appropriate reference substance, i.e., a commercial product containing the analogue active substance with the same concentration. The prepared solutions were applied on the paper antibiograms. Then the soaked antibiograms were placed on the Petri Dishes (dish diameter 90 mm) with the growth medium for fungal pathogens V8. Composition of V8: agar, calcium carbonate and multi-vegetable juice. 3 fragments of mycelium of the tested pathogen (5×5 mm) were transplanted onto the prepared medium. As a result, the zones where the fungal growth was inhibited have been measured and compared respectively with the control sample and the analogue active substance sample.
(§3) Assessment was carried out by determining the infested area of the Petri dish in %. These percentages have been converted into efficacy (W) according to Abbot's formula as follows: W=(1−α/β)×100 • where: • α—corresponds to the mycelium/bacterial growth of each tested sample [%], • β—corresponds to the mycelium/bacterial growth in control sample [%].
(§4) In order to estimate if the combined action effect with the commercial fungicide, the W parameter of the mixture was compared with W parameter for particular commercial fungicide solo. Where W=0 the efficacy of the control sample (whole Petri dish covered with mycelium), and W=100 is when no mycelium growth observed.

oilseed rape = test: Field trial oilseed rape, plant biomass and yield quality/quantity parameters; assay type: in vivo; settings: field conditions
Protocol: as §1

winter wheat = test: Field trial winter wheat, plant biomass and yield parameters; assay type: in vivo; settings: field conditions
Protocol: as §1

Phytophthora megasperma = test: Kirby-Bauer disk diffusion test, Phytophthora megasperma; settings: Phytophthora megasperma
Protocol: (§5) The microbiological tests were carried out by applying Kirby-Bauer Disk Diffusion Susceptibility Test Protocol for antimicrobial activity. It is based on the formation of a concentration gradient in the growth medium during the diffusion of the active substance from the antibiogram disc (Kirby-Bauer method).
as §2, §3, §4

Venturia inaegualis = test: Kirby-Bauer disk diffusion test, Venturia inaequalis; settings: Venturia inaegualis
Protocol: as §5, §2, §3, §4

Monilinia fructigena = test: Kirby-Bauer disk diffusion test, Monilinia fructigena
Protocol: as §2, §3, §4

Erwinia sp. = test: Kirby-Bauer disk diffusion test, bacterial pathogens (inhibition zones, halo effect); settings: Nutrient Agar, tank-mixes
Colletotrichum spp. = test: Field trial soya, efficacy against Colletotrichum spp.; assay type: in vivo; settings: field conditions, tank-mix, control (no treatment) 4.21
Sclerotinia sclerotiorum [3] = test: Field trial oilseed rape, efficacy against Sclerotinia sclerotiorum; assay type: in vivo; settings: field conditions, tank-mix, control (no treatment) 6.28
Protocol: (§6) The rates of application (use) of the composition of the present invention (MFA) vary according to type of use, type of crop, the specific active ingredient in the combination, but is such that the active ingredient in the combination is an effective amount to provide the desired action (such as disease control). The application rate of the composition for a given set of conditions can readily be determined by trials.
as §1

Botrytis cinerea = test: Kirby-Bauer disk diffusion test, Botrytis cinerea
Protocol: as §2, §3, §4

[4] = tested on: Alternaria infectoria/alternata; test: Kirby-Bauer disk diffusion test, Alternaria infectoria/alternata
Protocol: as §2, §3, §4

Verticillium longisporum = test: Kirby-Bauer disk diffusion test, Verticillium longisporum
Protocol: as §2, §3, §4

Phytophthora cactorum = test: Kirby-Bauer disk diffusion test, Phytophthora cactorum; set-up: % mycelium growth relative to the control: concentration or dose not given beside the values
Protocol: as §2, §3, §4

Fusarium oxysporum = test: Kirby-Bauer disk diffusion test, Fusarium oxysporum; settings: Fusarium oxysporum
Protocol: as §5, §2, §3, §4

Septoria nodorum (1291) = test: Kirby-Bauer disk diffusion test, Septoria nodorum (1291)
Protocol: as §2, §3, §4

Septoria tritici = test: Kirby-Bauer disk diffusion test, Septoria tritici
Protocol: as §2, §3, §4

[5] = tested on: Colletotrichum gloeosporioides; test: Kirby-Bauer disk diffusion test, Colletotrichum gloeosporioides; settings: Colletotrichum gloeosporioides
Protocol: as §5, §2, §3, §4

Phoma lingam = test: Field trial oilseed rape, efficacy against Phoma lingam; assay type: in vivo; settings: field conditions, tank-mix, control (no treatment) 4.18
Protocol: as §6, §1

Phytium ultimum = test: Kirby-Bauer disk diffusion test, Phytium ultimum
Protocol: as §2, §3, §4

Fusarium equiseti = test: Kirby-Bauer disk diffusion test, Fusarium equiseti
Protocol: as §2, §3, §4

Zymoseptoria tritici = test: Field trial winter wheat, efficacy against Zymoseptoria tritici; assay type: in vivo; settings: field conditions, tank-mix, control (no treatment) 4.68
Protocol: as §6, §1

Peronospora manshurica = test: Field trial soya, efficacy against Peronospora manshurica; assay type: in vivo; settings: field conditions, tank-mix, control (no treatment) 5.66
Protocol: as §6, §1

seeds = test: Seed treatment test: germination rate, infected seeds, shoot and root biomass (all seed species); assay type: in vivo; settings: applied alone and in mixtures with seed treatment fungicides
Protocol: The method of treating seeds according to the embodiment of the present inventions can be characterised in that in the treatment seed with 30 g checked product with and without combination with fungicidal seed treatment products per 100 kg of seed are employed. The results were assessed due to EPPO: PP1/152(4), PP 1/19 (5), PP 1/135(4) and PP1/181(4) Standards.
Seed treatment test was conducted according to International Rules for Seed Testing 2018 (ISTA) under laboratory conditions using sterile paper as a growing media. The tests were continued for 14 days. As a result, the germination rate and the number of infected seeds were calculated. The biomass (shoots and roots) was collected and measured accordingly.

Cochliobolus sativus = settings: Montana 1981 and 1982; cited from earlier work
spring barley [6] = settings: Montana 1981 and 1982; cited from earlier work
[7] = tested on: selected pathogens (fungi); settings: vs commercial fungicide

Compound: C=CCOC(Cn1ccnc1)c1ccc(Cl)cc1Cl (centres unmarked) [imazalil]
- plant emergence (spring barley [1]): increased emergence

Compound: COC=C(C(=O)OC)c1ccccc1Oc1cc(Oc2ccccc2C#N)ncn1 [Azoxystrobin (250)]
- Bulk density (soya; control 0.728): 0.627 kg/L
- Yield (soya; control 37.41): 38.26 dt/ha
- Biomass (soya; control 190.0): 156.7 dt/ha
- The Thousand Grain Weight (TGW) (soya; control 205.3): 204.0 g
- % mycelium growth relative to the control (Sclerotinia sclerotiorum [2]; V8 medium): 100%
- mycelium growth (Sclerotinia sclerotiorum [2]; V8 medium, control 8.6 cm): 8.6 cm
- EFFICACY W (Abbot) (Sclerotinia sclerotiorum [2]; control W=0, no growth W=100): 0
- The Thousand Grain Weight (TGW) (oilseed rape; Tables 31-33, control 5.64): 5.34 g
- Bulk density (oilseed rape; control 0.65): 0.65 kg/L
- Yield (oilseed rape; control 25.49): 25.54 dt/ha
- Biomass (oilseed rape; control 90.00): 112.50 dt/ha
- Bulk density (winter wheat; control 0.67): 0.63 kg/L
- The Thousand Grain Weight (TGW) (winter wheat; control 41.90): 43.60 g
- Yield (winter wheat; control 76.50): 66.33 dt/ha
- Biomass (winter wheat; control 157.50): 147.50 dt/ha
- % mycelium growth relative to the control (Phytophthora megasperma; V8 medium): 70%
- mycelium growth (Phytophthora megasperma; V8 medium, control 5.4 cm (8.6 cm in Table 25)): 3.8 cm
- EFFICACY W (Abbot) (Phytophthora megasperma; control W=0, no growth W=100): 30
- % mycelium growth relative to the control (Venturia inaegualis; V8 medium): 0%
- mycelium growth (Venturia inaegualis; V8 medium, control 2.9 cm): 0 cm
- EFFICACY W (Abbot) (Venturia inaegualis; control W=0, no growth W=100): 100
- % mycelium growth relative to the control (Monilinia fructigena; V8 medium): 0%
- mycelium growth (Monilinia fructigena; V8 medium, control 5.4 cm): 0 cm
- EFFICACY W (Abbot) (Monilinia fructigena; control W=0, no growth W=100): 100
- Efficacy % (Erwinia sp.; control 0.00): 22.86%
- Erwinia sp. bacterial growth (Erwinia sp.; control 3.5 mm): 2.7 mm
- Efficacy Colletotrichum spp. (Colletotrichum spp.): 1.76 scale 0-10
- Efficacy Sclerotinia sclerotiorum (Sclerotinia sclerotiorum [3]): 4.32 scale 0-10
- % mycelium growth relative to the control (Botrytis cinerea; V8 medium): 100%
- mycelium growth (Botrytis cinerea; V8 medium, control 8.6 cm): 8.6 cm
- EFFICACY W (Abbot) (Botrytis cinerea; control W=0, no growth W=100): 0
- % mycelium growth relative to the control ([4]; V8 medium): 40%
- mycelium growth ([4]; V8 medium, control 8.6 cm): 3.4 cm
- EFFICACY W (Abbot) ([4]; control W=0, no growth W=100): 60
- % mycelium growth relative to the control (Verticillium longisporum; V8 medium): 56%
- mycelium growth (Verticillium longisporum; V8 medium, control 3.9 cm): 2.2 cm
- EFFICACY W (Abbot) (Verticillium longisporum; control W=0, no growth W=100): 44
- % mycelium growth relative to the control (Phytophthora cactorum; V8 medium): 33%
- mycelium growth (Phytophthora cactorum; V8 medium, control 5.4 cm): 1.8 cm
- EFFICACY W (Abbot) (Phytophthora cactorum; control W=0, no growth W=100): 67
- % mycelium growth relative to the control (Fusarium oxysporum; V8 medium): 100%
- mycelium growth (Fusarium oxysporum; V8 medium, control 8.6 cm): 8.6 cm
- EFFICACY W (Abbot) (Fusarium oxysporum; control W=0, no growth W=100): 0
- % mycelium growth relative to the control (Septoria nodorum (1291); V8 medium): 30%
- mycelium growth (Septoria nodorum (1291); V8 medium, control 5.4 cm): 1.6 cm
- EFFICACY W (Abbot) (Septoria nodorum (1291); control W=0, no growth W=100): 70
- % mycelium growth relative to the control (Septoria tritici; V8 medium): 0%
- mycelium growth (Septoria tritici; V8 medium, control 1.9 cm): 0 cm
- EFFICACY W (Abbot) (Septoria tritici; control W=0, no growth W=100): 100
- % mycelium growth relative to the control ([5]; V8 medium): 50%
- mycelium growth ([5]; V8 medium, control 5.4 cm): 2.7 cm
- EFFICACY W (Abbot) ([5]; control W=0, no growth W=100): 50
- Efficacy Phoma lingam (Phoma lingam): 3.42 scale 0-10
- % mycelium growth relative to the control (Phytium ultimum; V8 medium): 100%
- mycelium growth (Phytium ultimum; V8 medium, control 8.6 cm): 8.6 cm
- EFFICACY W (Abbot) (Phytium ultimum; control W=0, no growth W=100): 0
- % mycelium growth relative to the control (Fusarium equiseti; V8 medium): 77%
- mycelium growth (Fusarium equiseti; V8 medium, control 8.6 cm): 6.6 cm
- EFFICACY W (Abbot) (Fusarium equiseti; control W=0, no growth W=100): 23
- Efficacy Zymoseptoria tritici (Zymoseptoria tritici): 4.32 scale 0-10
- Efficacy Peronospora manshurica (Peronospora manshurica): 3.32 scale 0-10

Compound: O=C(O)CN(CCN(CC(=O)O)CC(=O)O)CC(=O)O.[Zn+2] [zinc chelated by EDTA, zinc chelated by EDTA (ethylenediamine tetraacetic acid)]
- biomass increase (shoots and roots) (seeds): neutral to positive influence
- germination percentage (seeds): neutral to positive influence

Compound: OC(c1ccc(F)cc1)(c1cncnc1)c1ccccc1Cl (centres unmarked) [Nuarimol]
- plant emergence (spring barley [1]): increased emergence
- control of common root rot / disease ratings (Cochliobolus sativus): statistically significant in disease reduction
- grain yield (spring barley [6]): did not increase grain yield

Compound: N#Cc1c[nH]cc1-c1cccc2c1OC(F)(F)O2 [Fludioxonil, fludioxonil]
- effectiveness in reducing the development of pathogens (in words) [7]: completely inhibited fungal growth
